Measured values published in US12577226B2, “Compounds for treating Huntington's disease” (PTC THERAPEUTICS, INC., priority 2019, dated 2026).

Each compound was assayed on Endogenous Huntingtin Protein (capture with MW1 (expanded polyglutamine) or MAB2166 antibody) (assay: Endogenous Huntingtin Protein Assay (ELISA-based Meso Scale Discovery electrochemiluminescence assay)). Conditions: MSD electrochemiluminescence platform.
Type: cell-based
In short: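 MSD electrochemiluminescence sandwich immunoassay: plates coated with 1 μg/mL MW1 or MAB2166 capture antibody, samples incubated overnight at 4 °C. Detection with rabbit monoclonal #5656S then SULFO-TAG anti-rabbit (each 0.25 μg/mL, 1 h RT).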

Compound | IC50
[2H]C([2H])([2H])n1cc(-c2cnc(-c3ccc(OC4CC(C)(C)NC(C)(C)C4)nn3)c(O)c2)cn1 [Compound 3, 5-[1-(^2H3)methyl-1H-pyrazol-4-yl]-2-{6-[(2,2,6,6-tetramethylpiperidin-4-yl)oxy]pyridazin-3-yl}pyridin-3-ol] | ≤ 100 nM
2-(6-{[(3R,4S)-3-fluoro-2,2,6,6-tetramethylpiperidin-4-yl]oxy}pyridazin-3-yl)-5-(imidazo[1,2-a]pyrazin-6-yl)pyridin-3-ol and 2-(6-{[(3S,4R)-3-fluoro-2,2,6,6-tetramethylpiperidin-4-yl]oxy}pyridazin-3-yl)-5-(imidazo[1,2-a]pyrazin-6-yl)pyridin-3-ol [Compound 66] | 100 to 500 nM
[2H]C([2H])([2H])n1cc(-c2cnc(-c3ccc(O[C@H]4C[C@@H](C)NC5(CC5)C4)nn3)c(O)c2)cn1 [Compound 82, 2-(6-{[(5R,7S)-5-methyl-4-azaspiro[2.5]octan-7-yl]oxy}pyridazin-3-yl)-5-[1-(^2H3)methyl-1H-pyrazol-4-yl]pyridin-3-ol] | ≤ 100 nM
Cn1nc2cc(-c3cnc(-c4cnc(N5CCN[C@@H](C6CC6)C5)nn4)c(O)c3)cnc2n1 [Compound 157, 2-{3-[(3S)-3-cyclopropylpiperazin-1-yl]-1,2,4-triazin-6-yl}-5-(2-methyl-2H-[1,2,3]triazolo[4,5-b]pyridin-6-yl)pyridin-3-ol] | ≤ 100 nM
CC(C)[C@H]1CN(c2ccc(-c3ncc(-c4cc(F)c5nn(C)cc5c4)cc3O)nn2)CCN1 [Compound 122, 5-(7-fluoro-2-methyl-2H-indazol-5-yl)-2-{6-[(3S)-3-(propan-2-yl)piperazin-1-yl]pyridazin-3-yl}pyridin-3-ol] | ≤ 100 nM
Cn1cc2c(-c3cnc(-c4ccc(O[C@@H]5CC(C)(C)NC(C)(C)[C@@H]5F)nn4)c(O)c3)ccc(F)c2n1.Cn1cc2c(-c3cnc(-c4ccc(O[C@H]5CC(C)(C)NC(C)(C)[C@H]5F)nn4)c(O)c3)ccc(F)c2n1 (mixture of isomers) [Compound 58, 5-(7-fluoro-2-methyl-2H-indazol-4-yl)-2-(6-{[(3R,4S)-3-fluoro-2,2,6,6-tetramethylpiperidin-4-yl]oxy}pyridazin-3-yl)pyridin-3-ol and 5-(7-fluoro-2-methyl-2H-indazol-4-yl)-2-(6-{[(3S,4R)-3-fluoro-2,2,6,6-tetramethylpiperidin-4-yl]oxy}pyridazin-3-yl)pyridin-3-ol] | 500 to 1000 nM
CC(C)[C@H]1CN(c2ncc(-c3ncc(-c4cc(F)c5nn(C)cc5c4)cc3O)nn2)CCN1 [Compound 155, 5-(7-fluoro-2-methyl-2H-indazol-5-yl)-2-{3-[(3S)-3-(propan-2-yl)piperazin-1-yl]-1,2,4-triazin-6-yl}pyridin-3-ol] | ≤ 100 nM
CN(c1ccc(-c2ncc(-c3ccn(C)n3)cc2O)nn1)C1CC(C)(C)NC(C)(C)C1 [Compound 13, 5-(1-methyl-1H-pyrazol-3-yl)-2-{6-[methyl(2,2,6,6-tetramethylpiperidin-4-yl)amino]pyridazin-3-yl}pyridin-3-ol] | ≤ 100 nM
C[C@@H]1CN(c2ccc(-c3ncc(-c4cc(F)c5nn(C)cc5c4)cc3O)nn2)C[C@H](C)N1 [Compound 69, 2-{6-[(3R,5S)-3,5-dimethylpiperazin-1-yl]pyridazin-3-yl}-5-(7-fluoro-2-methyl-2H-indazol-5-yl)pyridin-3-ol and 2-{6-[(3S,5R)-3,5-dimethylpiperazin-1-yl]pyridazin-3-yl}-5-(7-fluoro-2-methyl-2H-indazol-5-yl)pyridin-3-ol] | ≤ 100 nM
CN1CCN(c2ccc(-c3ncc(-c4cc(F)c5nn(C)cc5c4)cc3O)nn2)CC1 [Compound 101, 5-(7-fluoro-2-methyl-2H-indazol-5-yl)-2-[6-(4-methylpiperazin-1-yl)pyridazin-3-yl]pyridin-3-ol] | ≤ 100 nM
5-(8-ethyl-2-methylimidazo[1,2-a]pyridin-6-yl)-2-(6-{[(3R,4S)-3-fluoro-2,2,6,6-tetramethylpiperidin-4-yl]oxy}pyridazin-3-yl)pyridin-3-ol and 5-(8-ethyl-2-methylimidazo[1,2-a]pyridin-6-yl)-2-(6-{[(3S,4R)-3-fluoro-2,2,6,6-tetramethylpiperidin-4-yl]oxy}pyridazin-3-yl)pyridin-3-ol [Compound 45] | ≤ 100 nM
COc1cc(-c2cnc(-c3ccc(OC4CC(C)(C)NC(C)(C)C4F)nn3)c(O)c2)nn2cc(C)nc12 (mixture of isomers) [Compound 57, 2-(6-{[(3R,4S)-3-fluoro-2,2,6,6-tetramethylpiperidin-4-yl]oxy}pyridazin-3-yl)-5-(8-methoxy-2-methylimidazo[1,2-b]pyridazin-6-yl)pyridin-3-ol and 2-(6-{[(3S,4R)-3-fluoro-2,2,6,6-tetramethylpiperidin-4-yl]oxy}pyridazin-3-yl)-5-(8-methoxy-2-methylimidazo[1,2-b]pyridazin-6-yl)pyridin-3-ol] | ≤ 100 nM
2-{6-[(3R)-(tert-butylamino)pyrrolidin-1-yl]pyridazin-3-yl}-5-(1-methyl-1H-pyrazol-3-yl)pyridin-3-ol and 2-{6-[(3S)-(tert-butylamino)pyrrolidin-1-yl]pyridazin-3-yl}-5-(1-methyl-1H-pyrazol-3-yl)pyridin-3-ol [Compound 17] | 500 to 1000 nM
C[C@@H]1CN(c2ccc(-c3ncc(-c4ccc5n[nH]cc5c4)cc3O)nn2)C[C@H](C)N1 [Compound 131, 2-{6-[(3R,5S)-3,5-dimethylpiperazin-1-yl]pyridazin-3-yl}-5-(2H-indazol-5-yl)pyridin-3-ol and 2-{6-[(3S,5R)-3,5-dimethylpiperazin-1-yl]pyridazin-3-yl}-5-(2H-indazol-5-yl)pyridin-3-ol] | 500 to 1000 nM
CC1(C)CC(Oc2ccc(-c3ncc(-c4ncco4)cc3O)nn2)CC2(CC2)N1 (stereo not shown) [Compound 28, 2-{6-[(5,5-dimethyl-4-azaspiro[2.5]octan-7-yl)oxy]pyridazin-3-yl}-5-(1,3-oxazol-2-yl)pyridin-3-ol] | ≤ 100 nM
5-[(2-methylpyrimidin-5-yl)amino]-2-{6-[(3R)-3-(propan-2-yl)piperazin-1-yl]pyridazin-3-yl}pyridin-3-ol and 5-[(2-methylpyrimidin-5-yl)amino]-2-{6-[(3S)-3-(propan-2-yl)piperazin-1-yl]pyridazin-3-yl}pyridin-3-ol [Compound 134] | 500 to 1000 nM
2-(6-{[(3R,4S)-3-fluoro-2,2,6,6-tetramethylpiperidin-4-yl]oxy}pyridazin-3-yl)-5-(2-methylimidazo[1,2-b]pyridazin-6-yl)pyridin-3-ol and 2-(6-{[(3S,4R)-3-fluoro-2,2,6,6-tetramethylpiperidin-4-yl]oxy}pyridazin-3-yl)-5-(2-methylimidazo[1,2-b]pyridazin-6-yl)pyridin-3-ol [Compound 48] | ≤ 100 nM
CCc1cc(-c2cnc(-c3cnc(N4CC[C@@H](NC(C)(C)C)C4)nn3)c(O)c2)cn2cc(C)nc12 [Compound 148, 2-{3-[(3R)-3-(tert-butylamino)pyrrolidin-1-yl]-1,2,4-triazin-6-yl}-5-(8-ethyl-2-methylimidazo[1,2-a]pyridin-6-yl)pyridin-3-ol] | 100 to 500 nM
CCC1CN(c2ccc(-c3ncc(-c4cc(F)c5nn(C)cc5c4)cc3O)nn2)CCN1 (stereo not shown) [Compound 120, 2-[6-(3-ethylpiperazin-1-yl)pyridazin-3-yl]-5-(7-fluoro-2-methyl-2H-indazol-5-yl)pyridin-3-ol] | ≤ 100 nM
